Results published in patent US11548915B2, “Composition for overcoming resistance to EGFR-targeting agent” (Pinetree Therapeutics, Inc., priority 2016, dated 2023).

Tests used:
Experiment in all cases: WST-1 cell viability assay
[1] = tested on: HCC44; conditions: HCC44, NRP1-expressing; 0, 1, 2, and 4 μM, 48 hours
[2] = tested on: A549; conditions: A549, NRP1-expressing; 0, 1, 2, and 4 μM, 48 hours
[3] = tested on: H441; conditions: H441, NRP1-expressing; 0, 1, 2, and 4 μM, 48 hours
[4] = tested on: Calu-3; conditions: Calu-3, NRP1-expressing; 0, 1, 2, and 4 μM, 48 hours
[5] = tested on: H1299; conditions: H1299, NRP1-expressing; 0, 1, 2, and 4 μM, 48 hours
[6] = tested on: Calu-1; conditions: Calu-1, NRP1-expressing; 0, 1, 2, and 4 μM, 48 hours
[7] = tested on: SK-LU-1; conditions: SK-LU-1, NRP1-expressing; 0, 1, 2, and 4 μM, 48 hours
[8] = tested on: H460; conditions: H460, expressing no NRP1; 0, 1, 2, and 4 μM, 48 hours

Row | Substance | cell growth inhibitory activity (WST-1) [1] | cell growth inhibitory activity (WST-1) [2] | cell growth inhibitory activity (WST-1) [3] | cell growth inhibitory activity (WST-1) [4] | cell growth inhibitory activity (WST-1) [5] | cell growth inhibitory activity (WST-1) [6] | cell growth inhibitory activity (WST-1) [7] | cell growth inhibitory activity (WST-1) [8]
1 | Panitumumab [Pnm, reference compound] | showed the same inhibitory activity against cell growth | showed the same inhibitory activity against cell growth | only Pnm-TPP11 showed cell growth inhibitory activity, unlike Pnm | showed the same inhibitory activity against cell growth | only Pnm-TPP11 showed cell growth inhibitory activity, unlike Pnm | showed the same inhibitory activity against cell growth | only Pnm-TPP11 showed cell growth inhibitory activity, unlike Pnm | –
2 | Pnm-TPP11: TPP11 peptide fused to C-terminus of Pnm heavy chain by (G4S)3 linker; heavy chain SEQ ID NO: 10, light chain SEQ ID NO: 14 | showed the same inhibitory activity against cell growth | showed the same inhibitory activity against cell growth | showed cell growth inhibitory activity | showed the same inhibitory activity against cell growth | showed cell growth inhibitory activity | showed the same inhibitory activity against cell growth | showed cell growth inhibitory activity | showed no effect
